Measured values published in patent US4138554A, “7-[D-α-(4-Hydroxy-1,5-naphthyridine-3-carboxamido)-α-phenyl (and p-hydroxyphenyl)acetamido]-3-carbamoyloxymethyl-3-cephem-4-carboxylic acids” (priority 1977, dated 1979).
In brackets after ≈: the same amount, converted by molar mass. Where two headings read alike, the source gives them in different places.

System: Pseudomonas aeruginosa
Assay: MIC by agar dilution against 61 strains of Pseudomonas aeruginosa, secondary evaluation
Format: cell-based
Conditions: for MIC: Pseudomonas aeruginosa
Procedure: Minimum inhibitory concentrations (MIC) of BB-S520 were determined by serial two-fold agar dilution method using Steers' apparatus on Meuller-Hinton agar plate against 31 test organisms for the primary screening and also against 61 strains of Pseudomonas aeruginosa for the secondary evaluation. The results are shown in Table 1 and Table 2 along with those of BB-S514 and sulbenicillin.
Minimum inhibitory concentrations (MIC) of cephalosporins in the present study were determined by serial two-fold agar dilution method using Steers' apparatus on Mueller-Hinton agar plate against 31 test organisms for the primary screening and also against 61 strains of Pseudomonas aeruginosa for the secondary evaluation.

- MIC (61 strains of Pseudomonas aeruginosa, Table 7, read-out: Geometric Mean of MIC): 4.3 µg/mL (≈ 8.31 µM)
- MIC (BBRI Pa-No. 1, D15, Table 7, read-out: MIC): 12.5 µg/mL (≈ 24.2 µM)
- MIC (BBRI Pa-No. 2, VA, Table 7, read-out: MIC): 3.1 µg/mL (≈ 5.99 µM)
- MIC (BBRI Pa-No. 3, 1449VA, Table 7, read-out: MIC): 1.6 µg/mL (≈ 3.09 µM)
- MIC (BBRI Pa-No. 4, H9 D113, Table 7, read-out: MIC): 3.1 µg/mL (≈ 5.99 µM)
- MIC (BBRI Pa-No. 5, N4865KC, Table 7, read-out: MIC): 1.6 µg/mL (≈ 3.09 µM)
- MIC (BBRI Pa-No. 6, No. 5, Table 7, read-out: MIC): 25 µg/mL (≈ 48.3 µM)
- MIC (BBRI Pa-No. 7, Table 7, read-out: MIC): 3.1 µg/mL (≈ 5.99 µM)
- MIC (BBRI Pa-No. 8, Table 7, read-out: MIC): 3.1 µg/mL (≈ 5.99 µM)
- MIC (BBRI Pa-No. 9, Yale, Table 7, read-out: MIC): 3.1 µg/mL (≈ 5.99 µM)
- MIC (BBRI Pa-No. 10, Table 7, read-out: MIC): > 100 µg/mL
- MIC (BBRI Pa-No. 11, Table 7, read-out: MIC): 3.1 µg/mL (≈ 5.99 µM)
- MIC (BBRI Pa-No. 12, Table 7, read-out: MIC): 6.3 µg/mL (≈ 12.2 µM)
- MIC (BBRI Pa-No. 14, Table 7, read-out: MIC): 1.6 µg/mL (≈ 3.09 µM)
- MIC (BBRI Pa-No. 15, Table 7, read-out: MIC): 6.3 µg/mL (≈ 12.2 µM)
- MIC (BBRI Pa-No. 16, No. 130, Table 7, read-out: MIC): 0.8 µg/mL (≈ 1.55 µM)
- MIC (BBRI Pa-No. 17, H6 D114, Table 7, read-out: MIC): 25 µg/mL (≈ 48.3 µM)
- MIC (BBRI Pa-No. 18, H8 D121, Table 7, read-out: MIC): 50 µg/mL (≈ 96.6 µM)
- MIC (BBRI Pa-No. 19, Table 7, read-out: MIC): 0.8 µg/mL (≈ 1.55 µM)
- MIC (BBRI Pa-No. 20, Table 7, read-out: MIC): 6.3 µg/mL (≈ 12.2 µM)
- MIC (BBRI Pa-No. 21, Table 7, read-out: MIC): 3.1 µg/mL (≈ 5.99 µM)
- MIC (BBRI Pa-No. 23, Table 7, read-out: MIC): 3.1 µg/mL (≈ 5.99 µM)
- MIC (BBRI Pa-No. 24, Table 7, read-out: MIC): > 100 µg/mL
- MIC (BBRI Pa-No. 25, Table 7, read-out: MIC): 1.6 µg/mL (≈ 3.09 µM)
- MIC (BBRI Pa-No. 26, Ps32, Table 7, read-out: MIC): 1.6 µg/mL (≈ 3.09 µM)
- MIC (BBRI Pa-No. 28, CPH1C527/72, Table 7, read-out: MIC): 6.3 µg/mL (≈ 12.2 µM)
- MIC (BBRI Pa-No. 29, D122, Table 7, read-out: MIC): 3.1 µg/mL (≈ 5.99 µM)
- MIC (BBRI Pa-No. 30, Table 7, read-out: MIC): 6.3 µg/mL (≈ 12.2 µM)
- MIC (BBRI Pa-No. 31, Table 7, read-out: MIC): 1.6 µg/mL (≈ 3.09 µM)
- MIC (BBRI Pa-No. 32, Table 7, read-out: MIC): 3.1 µg/mL (≈ 5.99 µM)
- MIC (BBRI Pa-No. 33, Table 7, read-out: MIC): 6.3 µg/mL (≈ 12.2 µM)
- MIC (BBRI Pa-No. 34, Table 7, read-out: MIC): 3.1 µg/mL (≈ 5.99 µM)
- MIC (BBRI Pa-No. 35, Table 7, read-out: MIC): 6.3 µg/mL (≈ 12.2 µM)
- MIC (BBRI Pa-No. 36, Table 7, read-out: MIC): 0.4 µg/mL (≈ 0.773 µM)
- MIC (BBRI Pa-No. 37, Table 7, read-out: MIC): 3.1 µg/mL (≈ 5.99 µM)
- MIC (BBRI Pa-No. 38, Table 7, read-out: MIC): 6.3 µg/mL (≈ 12.2 µM)
- MIC (BBRI Pa-No. 39, Table 7, read-out: MIC): 1.6 µg/mL (≈ 3.09 µM)
- MIC (BBRI Pa-No. 41, Table 7, read-out: MIC): 3.1 µg/mL (≈ 5.99 µM)
- MIC (BBRI Pa-No. 42, Table 7, read-out: MIC): 25 µg/mL (≈ 48.3 µM)
- MIC (BBRI Pa-No. 43, Table 7, read-out: MIC): 6.3 µg/mL (≈ 12.2 µM)
- MIC (BBRI Pa-No. 44 (unnamed strain), Table 7, read-out: MIC): 3.1 µg/mL (≈ 5.99 µM)
- MIC (BBRI Pa-No. 51, Table 7, read-out: MIC): 3.1 µg/mL (≈ 5.99 µM)
- MIC (BBRI Pa-No. 52, Table 7, read-out: MIC): 3.1 µg/mL (≈ 5.99 µM)
- MIC (BBRI Pa-No. 53, Table 7, read-out: MIC): 3.1 µg/mL (≈ 5.99 µM)
- MIC (BBRI Pa-No. 54, Table 7, read-out: MIC): 3.1 µg/mL (≈ 5.99 µM)
- MIC (BBRI Pa-No. 55, Table 7, read-out: MIC): 3.1 µg/mL (≈ 5.99 µM)
- MIC (BBRI Pa-No. 56, Table 7, read-out: MIC): 3.1 µg/mL (≈ 5.99 µM)
- MIC (BBRI Pa-No. 57, Table 7, read-out: MIC): 6.3 µg/mL (≈ 12.2 µM)
- MIC (BBRI Pa-No. 58, Table 7, read-out: MIC): 6.3 µg/mL (≈ 12.2 µM)
- MIC (BBRI Pa-No. 59, Table 7, read-out: MIC): 1.6 µg/mL (≈ 3.09 µM)
- MIC (BBRI Pa-No. 60, Table 7, read-out: MIC): 3.1 µg/mL (≈ 5.99 µM)
- MIC (BBRI Pa-No. 61, Table 7, read-out: MIC): 3.1 µg/mL (≈ 5.99 µM)
- MIC (BBRI Pa-No. 62, Table 7, read-out: MIC): 12.5 µg/mL (≈ 24.2 µM)
- MIC (BBRI Pa-No. 64, Table 7, read-out: MIC): 3.1 µg/mL (≈ 5.99 µM)
- MIC (BBRI Pa-No. 65, Table 7, read-out: MIC): 1.6 µg/mL (≈ 3.09 µM)
- MIC (BBRI Pa-No. 66, Table 7, read-out: MIC): 3.1 µg/mL (≈ 5.99 µM)
- MIC (BBRI Pa-No. 67, Table 7, read-out: MIC): 6.3 µg/mL (≈ 12.2 µM)
- MIC (BBRI Pa-No. 68, Table 7, read-out: MIC): 6.3 µg/mL (≈ 12.2 µM)
- MIC (BBRI Pa-No. 69, Table 7, read-out: MIC): 6.3 µg/mL (≈ 12.2 µM)
- MIC (BBRI Pa-No. 70, K-Ps102(CR-102), Table 7, read-out: MIC): 3.1 µg/mL (≈ 5.99 µM)
- MIC (GN315, BBRI Pa-No. 27, GN315, Table 7, read-out: MIC): 3.1 µg/mL (≈ 5.99 µM)
- MIC (GN4925, BBRI Pa-No. 44, GN4925, Table 7, read-out: MIC): 6.3 µg/mL (≈ 12.2 µM)
Compound: CCN1CCN(C(=O)NC(C(=O)N[C@@H]2C(=O)N3[C@@H]2SC(C)(C)[C@@H]3C(=O)O)c2ccccc2)C(=O)C1=O (stereo partly drawn) [T-1220]
- Rel. Act. (SBPC=100%) (61 strains of Pseudomonas aeruginosa, Table 7): 544%
